Measurements as given in article PMC5537305, “Photo-enhanced Aqueous Solubilization of an Azo-compound” (Scientific Reports, 2017).
In brackets after ≈: the same amount, converted by molar mass.

Key:
Type in all cases: physicochemical
[1] = LogPow by HPLC method (OECD 117); conditions: reversed-phase HPLC column (Inertsil ODS-4)
Experimental: Inc. Inertsil ODS-4 reversed-phase column, 5 µm, 4.6 mm x 150 mm) eluted with a mobile phase consisting of H2O and CH3CN (45: 55) at a flow rate of 1.0 mL/min, with UV monitoring at 300 (for 1) or 330 (for 2) nm, at 37 ° C. The dead time t0 was measured with thiourea as the unretained compound. Each measurement was performed in duplicate, and the mean retention time (tR) was used for further calculations. The capacity factor of each compound, k = ((tR – t0) / t0), was calculated by extrapolation of the line fitted on the measured log k values of CH3CN−aqueous mobile phase. For the reference substrates (acetanilide, methyl benzoate, toluene, 4-phenylphenol, benzyl benzoate, dibenzyl), the calculated log k values were plotted against logPow values, and the absolute calibration curve was determined (LogP = 2.8279 x (log k) + 1.6035, R2=0.98). The LogP values of tested compounds were calculated using a previously prepared calibration curve from the tR […]
We observed the azobenzene compound using an optical microscope (BX-51P, Olympus). Bright-field images were captured in the reflection mode. For investigation of the existence of the polarization plane in the sample, the transmitted polarizing microscope mode under crossed-Nicol conditions was used. […] The intensity of illuminating UV light at the sample was monitored with an optical power meter […]

[2] = Aqueous solubility of stilbenes 1 and 2 in phosphate buffer; conditions: for solubility at 24 h: 20 °C, aqueous buffer, thermodynamic from solid, 20 °C for 24 h
Text: First, we synthesized cis- and trans-stilbene analogs 1 and 2 as models for cis- and trans-azobenzenes, respectively (Fig. 1, Fig. S1). As expected, cis-1 was 14 times more soluble than trans-2 in phosphate buffer (Table S1). To confirm the putative mechanism of the higher solubility of the cis isomer, the melting point and LogP ow were examined as parameters of intermolecular interaction and hydrophobicity, respectively. The order of lower melting points (cis < trans) was the same as the order of higher aqueous solubility (cis > trans). As for hydrophobicity, the LogP ow values of 1 and 2 were almost the same. […] Therefore, the bent and twisted structure of cis-azobenzenes may result in greater aqueous solubility.
Table S1. Physicochemical properties of stilbenes 1 and 2.
Compound (µg/mL) Melting point (º C) LogPow λmax (nm)
Table S2. Photoinduced isomerization of 3
Light Time (min) cis ratio (%) trans ratio (%)
Compound 3 (10 µM) in a mixture of water and MeOH (1%) was successively exposed to white light and to a 365 nm mercury lamp (0.5 mW/cm2). The cis-trans ratio was calculated from the peak areas in HPLC.
(§1) Table S3. Cis ratio and aqueous solubilization of 3 under UV irradiation, under visible light irradiation, and in […]
Shake UV light Visible light Dark time cis ratio Solubilized 3 cis ratio Solubilized 3 cis ratio Solubility (%) (µg/mL) (%) (µg/mL) (%) (µg/mL)
(§2) Compound 3 was shaken at 37 °C under UV irradiation, under visible light irradiation, and in the dark. UV irradiation was performed with a mercury lamp (0.5 mW/cm2). Cis ratio in the aqueous solution was evaluated from the peak areas in HPLC immediately after filtration.

[3] = Aqueous solubilization in 1/15 M phosphate buffer (pH 7.4) under UV, visible light or dark, with cis ratio in solution by HPLC
Experimental: as §1, §2
Table S4. Aqueous solubilization and cis ratio of 3 under irradiation at various wavelengths through filters of […]
Illumination was performed with a xenon lamp using repeated cycles of irradiation and shaking (5000 flashes, then shaking for 10 sec) through filters of various bandwidths at room temperature (20-22 °C) for 1 h. The cis ratio in the aqueous solution was evaluated by HPLC immediately after filtration, based on peak area.
Table S5. Aqueous solubilization of 3 under UV irradiation at various intensity levels.
Sample irradiation was conducted using 365 nm LED light (max light intensity: 290 mW/cm2) at 37 °C for 1 […]
Sample irradiations were conducted with the white light through a filter cutting off wavelengths below 560 nm, or with 365 nm LED light (344 mW/cm2) at 37 °C for 1 h.
Table S7. Aqueous dissolution of UV-irradiated crystals of 3 measured in the dark, and the cis ratio contained […]
Crystals of 3 were irradiated with 365 nm LED light (344 mW/cm2) at 37 °C for 3 h.
The UV-irradiated crystals and unirradiated crystals were each shaken in phosphate buffer in the dark at 37 °C for 1 h.
Physicochemical properties […]
Compound 3 (about 0.2 mg) was ground and taken up in 1/15 M phosphate buffer (pH 7.4, 1.0 mL) in a 10 mL glass tube. The suspension was incubated under ultrasound irradiation for 10 min, and shaken in a temperature controllable incubator located in a dark room for the indicated time at the indicated temperature.
With shaking on a plate shaker, a sample was irradiated with a 365 nm mercury lamp (4 W, UVP compact […]
white LED light (5 W, Nikki Trading Corp., NLSS05BM, 68 and 54 mW/cm2 at 450 and 540 nm, respectively) through a filter cutting off wavelengths below 560 nm (Atto Corp. YA-3). Irradiation was done from the top of the sample glass tube. Then, the suspension was filtered through a Millipore Millex-LG (0.20 […]
For irradiation at various UV wavelengths, 3 (about 0.1 mg) was ground and taken up in 1/15 M phosphate buffer (pH 7.4, 0.2 mL) in a well of a 96-well white plate. Illumination over a range of wavelength from 355-540 nm was performed using a plate reader EnVision equipped with a xenon flash lamp (35 W, 500 Hz), with excitation filters of appropriate bandwidths.

aqueous solubilization under UV irradiation vs in the dark ([3]; UV 0.5 mW/cm2, 37 °C, 5 h)	increase of solubilization by UV irradiation ([3]; more intense UV irradiation (344 mW/cm2)) [fold]	SMILES	chromatographic logP [1]	solubility at 24 h [2] [µg/mL]	times more soluble than trans-2 ([2]; cis-1 vs trans-2) [times]
–	–	COc1ccc(/C=C/c2ccc(OC)c(OC)c2)cc1OC [trans-2]	3.2	0.0475 (≈ 0.158 µM)	–
essentially the same	1.4	O=C(O)c1cc(/N=N/c2ccc(S(=O)(=O)Nc3ccccn3)cc2)ccc1O [Compound 4, Sulfasalazine, reference compound]	–	–	–
–	–	COc1ccc(/C=C\c2ccc(OC)c(OC)c2)cc1OC [cis-1]	3.3	0.673 (≈ 2.24 µM)	14
